Test results taken from patent publication US11230541B2, “Heterocyclic compound” (Takeda Pharmaceutical Company Limited, priority 2017, dated 2022).

biological target: T1, NMDA receptor composed of four subunits including 2 sets of heterodimers of NR1 and NR2B (Homo sapiens, UniProt Q13224); test: NR2B Ca2+ influx assay (FLIPR, Fluo-4) in HEK293 cells expressing human GRIN1 and GRIN2B; format: cell-based; details: HEK293, 10 μM final compound concentration, glutamic acid/glycine-induced Ca2+ influx, read-out: inhibitory rate (10 μM compound concentration)
T1 construct: host or cells: HEK293 (tetracycline-induced expression)
Text: To confirm the “antagonistic action on an NMDA receptor containing the NR2B subunit” of the compound of the present invention, human embryonic kidney cell expressing the “NMDA receptor composed of four subunits including 2 sets of heterodimers of NR1 and NR2B”, specifically HEK293 cell expressing human glutamate ionotropic receptor NMDA type subunit 1 (GRIN1) and human glutamate ionotropic receptor NMDA type subunit 2B (GRIN2B), was used and the activation suppressive effect on the receptors was measured.
As an index of the NMDA receptor activation, intracellular calcium ion (Ca^2+) influx caused by the binding of glycine and glutamic acid with NR1 and NR2B, respectively, was used. HEK293 cells were purchased from ChanTest. The cells were cultured in a DMEM/F-12 (COSMO BIO, 10-092-CM) medium added with 10% FBS′(fetal bovine serum, AusGene), 100 units/mL penicillin, 100 μg/mL streptomycin, 500 μg/mL neomycin, 100 μg/mL Zeocin, 5 μg/mL Blasticidin at 37° C., 5% CO2. The cells were detached from flask with trypsin the day before the assay, suspended in a seeding medium (DMEM (Invitrogen, 31053) added with 10% FBS, 100 units/mL penicillin, 100 μg/mL streptomycin) at 8×10^5 cells/mL, seeded by 25 μL per well in a 384-well plate (Falcon, 356663) at 20000 cells/well, and cultured overnight in an incubator. On the day of the assay, tetracycline (Wako Pure Chemical Industries, Ltd., 209-16561) was diluted with the seeding medium at 2 μg/mL, added at […] to the plate seeded with the cells, and cultured for 2 hr in an incubator. Thereafter, the medium was removed, and the cells were washed with 50 μL/well assay buffer (137 mM NaCl, 4 mM KCl, 1.8 mM CaCl2, 10 mM HEPES (pH 7.2), 10 mM Glucose, 0.1% BSA). Then, a loading buffer (assay buffer added with 2.5 uM Fluo-4AM, 2 mM Amaranth, 1 mM Tartrazine) was added at 25 μL/well, and loading was performed in the incubator for 30 min, and at room temperature for 15 min. A solution (25 μL) of the Example compound diluted with the above-mentioned assay buffer at 30 μM (final concentration 10 μM) was added, and the cells were stood for 15 min at room temperature. Using FLIPR (Molecular Devices), 25 μL of an assay buffer containing 30 μM glutamic acid, 30 μM glycine was added, and the fluorescence signal was measured every 3 seconds for 5 min. The inhibitory activity was calculated as a relative activity value (inhibitory rate) that inhibits 100% of the cumulative value of the fluorescence value of a well added with a buffer free of glutamic acid, glycine, relative to the cumulative value of the fluorescence value of each well.

T1 sequence (Q13224 27-1484, other chains not shown): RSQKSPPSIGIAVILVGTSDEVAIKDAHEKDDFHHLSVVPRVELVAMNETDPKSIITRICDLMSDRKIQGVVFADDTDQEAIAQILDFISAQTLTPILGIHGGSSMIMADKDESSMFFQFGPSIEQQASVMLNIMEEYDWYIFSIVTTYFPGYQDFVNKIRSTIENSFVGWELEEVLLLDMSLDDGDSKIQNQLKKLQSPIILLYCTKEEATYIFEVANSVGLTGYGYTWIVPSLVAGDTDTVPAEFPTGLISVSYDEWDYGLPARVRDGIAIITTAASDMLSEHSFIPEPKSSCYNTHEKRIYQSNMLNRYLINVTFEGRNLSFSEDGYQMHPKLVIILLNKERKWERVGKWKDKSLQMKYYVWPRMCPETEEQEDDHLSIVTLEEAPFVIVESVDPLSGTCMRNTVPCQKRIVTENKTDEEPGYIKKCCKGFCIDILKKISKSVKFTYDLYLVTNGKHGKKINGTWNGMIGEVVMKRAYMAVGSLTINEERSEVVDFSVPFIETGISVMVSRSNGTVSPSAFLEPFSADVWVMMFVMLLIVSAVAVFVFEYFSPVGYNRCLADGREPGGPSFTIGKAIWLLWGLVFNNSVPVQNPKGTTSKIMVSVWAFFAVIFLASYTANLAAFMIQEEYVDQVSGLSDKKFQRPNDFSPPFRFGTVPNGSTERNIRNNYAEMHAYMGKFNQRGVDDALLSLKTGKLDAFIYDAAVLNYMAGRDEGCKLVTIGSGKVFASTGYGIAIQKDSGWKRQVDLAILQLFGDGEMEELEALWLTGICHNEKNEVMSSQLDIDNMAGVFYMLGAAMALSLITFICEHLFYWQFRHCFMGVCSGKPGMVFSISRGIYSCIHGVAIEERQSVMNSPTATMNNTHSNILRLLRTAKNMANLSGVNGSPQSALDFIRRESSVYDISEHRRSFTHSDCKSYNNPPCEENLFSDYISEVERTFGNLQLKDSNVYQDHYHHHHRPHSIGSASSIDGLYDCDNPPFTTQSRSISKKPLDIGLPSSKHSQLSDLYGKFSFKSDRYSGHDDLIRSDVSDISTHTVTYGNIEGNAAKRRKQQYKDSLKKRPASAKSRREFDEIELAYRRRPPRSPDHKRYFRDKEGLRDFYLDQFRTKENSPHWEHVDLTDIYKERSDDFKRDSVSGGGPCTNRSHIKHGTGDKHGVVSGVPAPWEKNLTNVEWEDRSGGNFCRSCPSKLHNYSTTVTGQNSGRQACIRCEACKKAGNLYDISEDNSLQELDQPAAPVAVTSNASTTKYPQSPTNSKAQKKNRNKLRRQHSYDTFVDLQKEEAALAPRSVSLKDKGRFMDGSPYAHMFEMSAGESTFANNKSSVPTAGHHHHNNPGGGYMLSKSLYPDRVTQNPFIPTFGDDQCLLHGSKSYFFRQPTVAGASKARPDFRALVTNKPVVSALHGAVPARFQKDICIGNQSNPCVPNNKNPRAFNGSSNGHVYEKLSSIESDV

In order of falling inhibition at 10 µM:
1. Cc1cc(C(=O)NCc2c(C3CC3)ccc3[nH]ncc23)ccc1Cl [Example 73, 4-chloro-N-((5-cyclopropyl-1H-indazol-yl)methyl)-3-methylbenzamide]  94%
2. O=C(NCc1c(C2CC2)ccc2[nH]ncc12)c1ccc(C(F)(F)F)s1 [Example 82, N-((5-cyclopropyl-1H-indazol-4-yl)methyl)-5-(trifluoromethyl)-thiophene-2-carboxamide]  94%
3. O=C(NCc1c(C2CC2)ccc2[nH]ncc12)c1cc(Cl)c(F)c(Cl)c1 [Example 86, 3,5-dichloro-N-((5-cyclopropyl-1H-indazol-4-yl)methyl)-4-fluorobenzamide]  94%
4. O=C(NCc1c(C2CC2)ccc2[nH]ncc12)c1cc(F)c(Cl)c(Cl)c1 [Example 87, 3,4-dichloro-N-((5-cyclopropyl-1H-indazol-4-yl)methyl)-5-fluorobenzamide]  94%
5. Cc1ccc(C(=O)NCc2c(C3CC3)ccc3[nH]ncc23)cc1Cl [Example 74, 3-chloro-N-((5-cyclopropyl-1H-indazol-yl)methyl)-4-methylbenzamide]  93%
6. Cc1cc(C(=O)NCc2c(C3CC3)ccc3[nH]ncc23)cc(F)c1F [Example 76, N-((5-cyclopropyl-1H-indazol-4-yl)methyl)-3,4-difluoro-5-methyl-benzamide]  93%
7. O=C(NCc1c(C2CC2)ccc2[nH]ncc12)c1ccc(Cl)c(F)c1 [Example 78, 4-chloro-N-((5-cyclopropyl-1H-indazol-yl)methyl)-3-fluorobenzamide]  93%
8. COc1ccc(C(=O)NCc2c(C3CC3)ccc3[nH]ncc23)cc1Cl [Example 80, 3-chloro-N-((5-cyclo-propyl-1H-indazol-4-yl)methyl)-4-methoxybenzamide]  93%
9. O=C(NCc1c(C2CC2)ccc2[nH]ncc12)c1cc(Cl)c(Cl)s1 [Example 83, 4,5-dichloro-N-((5-cyclopropyl-1H-indazol-4-yl)methyl)thiophene-2-carboxamide]  93%
10. O=C(NCc1c(C2CC2)ccc2[nH]ncc12)c1ccc(F)c(C(F)(F)F)c1 [Example 85, N-((5-cyclopropyl-1H-indazol-4-yl)methyl)-4-fluoro-3-(trifluoromethyl)-benzamide]  93%
11. O=C(NCc1c(C2CC2)ccc2[nH]ncc12)c1ccc(Cl)s1 [Example 71, 5-chloro-N-((5-cyclopropyl-1H-indazol-4-yl)methyl)thiophene-2-carboxamide]  92%
12. Cc1cc(C(=O)NCc2c(C3CC3)ccc3[nH]ncc23)ccc1F [Example 75, N-((5-cyclopropyl-1H-indazol-4-yl)methyl)-4-fluoro-3-methyl-benzamide]  92%
13. O=C(NCc1c(C2CC2)ccc2[nH]ncc12)c1ccc(F)c(Cl)c1 [Example 77, 3-chloro-N-((5-cyclopropyl-1H-indazol-4-yl)methyl)-4-fluorobenzamide]  92%
14. O=C(NCc1c(C2CC2)ccc2[nH]ncc12)c1cc(F)c(F)c(F)c1 [Example 79, N-((5-cyclopropyl-1H-indazol-4-yl)methyl)-3,4,5-trifluoro-benzamide]  92%
15. Cc1ccc(C(=O)NCc2c(C3CC3)ccc3[nH]ncc23)cc1C(F)(F)F [Example 84, N-((5-cyclopropyl-1H-indazol-4-yl)methyl)-4-methyl-3-(trifluoro-methyl)benzamide]  91%
16. COc1cc(C(=O)NCc2c(C3CC3)ccc3[nH]ncc23)ccc1F [Example 72, N-((5-cyclopropyl-1H-indazol-4-yl)methyl)-4-fluoro-3-methoxy-benzamide]  89%
17. COc1cc(C(=O)NCc2c(C3CC3)ccc3[nH]ncc23)ccc1Cl [Example 81, 4-chloro-N-((5-cyclopropyl-1H-indazol-4-yl)methyl)-3-methoxybenzamide]  82%
